# Target: T1, hEP3A/Gqi5 (Homo sapiens, UniProt P43115)
# T1 construct: expressed in transfected cells; host or cells: HEK-293(EBNA)
# T1 sequence (P43115 1-390): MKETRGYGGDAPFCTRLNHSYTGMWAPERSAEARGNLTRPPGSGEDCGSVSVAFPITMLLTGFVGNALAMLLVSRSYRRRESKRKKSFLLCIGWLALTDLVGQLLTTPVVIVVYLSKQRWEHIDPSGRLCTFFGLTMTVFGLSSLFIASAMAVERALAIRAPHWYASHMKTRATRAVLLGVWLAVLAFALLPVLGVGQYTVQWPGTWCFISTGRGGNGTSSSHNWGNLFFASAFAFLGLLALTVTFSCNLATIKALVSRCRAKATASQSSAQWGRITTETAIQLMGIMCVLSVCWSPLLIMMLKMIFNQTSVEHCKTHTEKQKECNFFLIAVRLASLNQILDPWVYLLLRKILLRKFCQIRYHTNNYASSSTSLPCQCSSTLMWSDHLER
# Test: FLIPR calcium signal, hEP3A
# Assay type: cell-based
# Conditions: read-out: Other Receptors EC50 hEP3A
# How it was run: (§1)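 HEK-293(EBNA) cells stably expressing the recombinant human receptor were loaded with 2 μM Fluo-4 AM for 45 min and read on FLIPR at 37° C in HBSS-HEPES pH 7.4. Peak fluorescence rise was expressed relative to buffer and standard agonist controls (BW245C, PGE2 or U-46619 by receptor); compounds were run 10^−5 to 10^−11 M in duplicate, n≧3.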
row,EC50 [nM],Structure (SMILES)
1,33,"CCCCCCC(O)c1ccc(N2C(=O)CC[C@@H]2CCCc2ccc(C(=O)O)s2)cc1 (single isomer, unassigned) [drawing 156]"
2,7,"CCCCCCC(O)c1ccc(N2C(=O)CC[C@@H]2CCCc2ccc(C(=O)O)s2)cc1 (single isomer, unassigned) [drawing 155]"
3,1200,"CCCCCC(O)c1ccc(N2C(=O)CC[C@@H]2COCc2ccc(C(=O)O)s2)cc1 (single isomer, unassigned) [drawing 177]"
4,2340,CCCCCC(=O)c1ccc(N2C(=O)CC[C@@H]2CCCc2ccc(C(=O)O)s2)cc1
5,156,"CCCCCC(O)c1ccc(N2C(=O)CC[C@@H]2CCCc2ccc(C(=O)O)s2)cc1 (single isomer, unassigned) [drawing 179]"
6,> 10000,CC(C)(C)c1ccc(N2C(=O)CC[C@@H]2COCc2ccc(C(=O)O)o2)cc1
7,71,"CCCCCCC(O)c1ccc(N2C(=O)CC[C@@H]2COCc2ccc(C(=O)O)s2)cc1 (single isomer, unassigned) [drawing 152]"
8,156,"CCCCCC(O)c1ccc(N2C(=O)CC[C@@H]2CCCc2ccc(C(=O)O)s2)cc1 (single isomer, unassigned) [drawing 151]"
9,155,CCCCCC(O)c1ccc(N2C(=O)CC[C@@H]2CCCc2ccc(C(=O)O)s2)cc1 (some centres unmarked) [drawing 145]
10,155,CCCCCC(O)c1ccc(N2C(=O)CC[C@@H]2CCCc2ccc(C(=O)O)s2)cc1 (some centres unmarked) [drawing 173]

# Target: T2, EP4 receptors (Homo sapiens, UniProt P35408)
# T2 construct: expressed in transfected cells; host or cells: HEK-293
# T2 sequence (P35408 whole entry): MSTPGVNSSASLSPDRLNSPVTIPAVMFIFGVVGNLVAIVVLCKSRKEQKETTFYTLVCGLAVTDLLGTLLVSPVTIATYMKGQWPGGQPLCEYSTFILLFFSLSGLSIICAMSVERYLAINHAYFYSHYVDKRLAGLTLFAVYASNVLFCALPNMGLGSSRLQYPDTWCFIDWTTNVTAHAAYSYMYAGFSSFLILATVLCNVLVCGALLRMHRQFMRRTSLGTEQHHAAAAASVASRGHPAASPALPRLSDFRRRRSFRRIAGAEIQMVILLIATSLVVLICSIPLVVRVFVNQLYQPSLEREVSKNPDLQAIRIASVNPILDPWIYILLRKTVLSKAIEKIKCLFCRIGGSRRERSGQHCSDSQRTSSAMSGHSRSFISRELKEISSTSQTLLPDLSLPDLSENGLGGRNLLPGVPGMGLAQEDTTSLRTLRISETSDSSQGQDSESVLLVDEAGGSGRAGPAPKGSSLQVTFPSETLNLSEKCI
# Test: Radioligand binding ([3H]PGE2), EP4
# Conditions: unit inferred; read-out: EP4 data KI
# How it was run: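 Membranes from HEK-293 cells stably expressing the human receptor, resuspended at 1 mg/ml protein in TME buffer pH 7.4. Competition against 5 nM [3H]PGE2 for 60 min at 25 °C, ended by filtration on GF/B filters; non-specific binding defined with 10^−5 M unlabeled PGE2.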
row,Ki [nM],Structure (SMILES)
1,6030,"CCCCCC(O)c1ccc(N2C(=O)CC[C@@H]2COCc2ccc(C(=O)O)s2)cc1 (single isomer, unassigned) [drawing 177]"
2,> 10000,CCCCCC(=O)c1ccc(N2C(=O)CC[C@@H]2CCCc2ccc(C(=O)O)s2)cc1
3,4850,"CCCCCC(O)c1ccc(N2C(=O)CC[C@@H]2CCCc2ccc(C(=O)O)s2)cc1 (single isomer, unassigned) [drawing 179]"
4,> 10000,CC(C)(C)c1ccc(N2C(=O)CC[C@@H]2COCc2ccc(C(=O)O)o2)cc1
5,> 10000,CCCCCC(O)c1ccc(N2C(=O)CC[C@@H]2CCCc2ccc(C(=O)O)s2)cc1 (some centres unmarked) [drawing 145]
6,> 10000,CCCCCC(O)c1ccc(N2C(=O)CC[C@@H]2CCCc2ccc(C(=O)O)s2)cc1 (some centres unmarked) [drawing 173]

# Target: T3, hEP2/Gqs5 (Homo sapiens, UniProt P43116)
# T3 construct: expressed in transfected cells; host or cells: HEK-293(EBNA)
# T3 sequence (P43116 whole entry): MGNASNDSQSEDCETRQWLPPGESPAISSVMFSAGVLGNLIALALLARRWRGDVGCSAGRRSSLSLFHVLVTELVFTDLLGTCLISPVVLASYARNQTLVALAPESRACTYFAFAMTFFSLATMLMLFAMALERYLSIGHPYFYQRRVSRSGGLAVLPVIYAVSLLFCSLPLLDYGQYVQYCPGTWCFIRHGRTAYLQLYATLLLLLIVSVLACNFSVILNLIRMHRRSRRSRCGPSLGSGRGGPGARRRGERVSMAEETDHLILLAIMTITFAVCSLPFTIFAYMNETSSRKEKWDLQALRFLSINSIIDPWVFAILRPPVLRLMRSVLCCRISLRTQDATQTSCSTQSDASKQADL
# Test: FLIPR calcium signal, hEP2
# Assay type: cell-based
# Conditions: unit inferred; other columns of the table in nM; read-out: EP2 data flipr EC50
# How it was run: as §1
row,EC50 [nM],Structure (SMILES)
1,5,"CCCCCCC(O)c1ccc(N2C(=O)CC[C@@H]2CCCc2ccc(C(=O)O)s2)cc1 (single isomer, unassigned) [drawing 156]"
2,15,"CCCCCC(O)c1ccc(N2C(=O)CC[C@@H]2COCc2ccc(C(=O)O)s2)cc1 (single isomer, unassigned) [drawing 177]"
3,16,CCCCCC(=O)c1ccc(N2C(=O)CC[C@@H]2CCCc2ccc(C(=O)O)s2)cc1
4,1.6,"CCCCCC(O)c1ccc(N2C(=O)CC[C@@H]2CCCc2ccc(C(=O)O)s2)cc1 (single isomer, unassigned) [drawing 179]"
5,442,CC(C)(C)c1ccc(N2C(=O)CC[C@@H]2COCc2ccc(C(=O)O)o2)cc1
6,134,"CCCCCCC(O)c1ccc(N2C(=O)CC[C@@H]2COCc2ccc(C(=O)O)s2)cc1 (single isomer, unassigned) [drawing 152]"
7,1.6,"CCCCCC(O)c1ccc(N2C(=O)CC[C@@H]2CCCc2ccc(C(=O)O)s2)cc1 (single isomer, unassigned) [drawing 151]"
8,5,CCCCCC(O)c1ccc(N2C(=O)CC[C@@H]2CCCc2ccc(C(=O)O)s2)cc1 (some centres unmarked) [drawing 145]
9,5,CCCCCC(O)c1ccc(N2C(=O)CC[C@@H]2CCCc2ccc(C(=O)O)s2)cc1 (some centres unmarked) [drawing 173]

# Target: T4, hDP/Gqs5 (Homo sapiens, UniProt Q13258)
# T4 construct: expressed in transfected cells; host or cells: HEK-293(EBNA)
# T4 sequence (Q13258 1-359): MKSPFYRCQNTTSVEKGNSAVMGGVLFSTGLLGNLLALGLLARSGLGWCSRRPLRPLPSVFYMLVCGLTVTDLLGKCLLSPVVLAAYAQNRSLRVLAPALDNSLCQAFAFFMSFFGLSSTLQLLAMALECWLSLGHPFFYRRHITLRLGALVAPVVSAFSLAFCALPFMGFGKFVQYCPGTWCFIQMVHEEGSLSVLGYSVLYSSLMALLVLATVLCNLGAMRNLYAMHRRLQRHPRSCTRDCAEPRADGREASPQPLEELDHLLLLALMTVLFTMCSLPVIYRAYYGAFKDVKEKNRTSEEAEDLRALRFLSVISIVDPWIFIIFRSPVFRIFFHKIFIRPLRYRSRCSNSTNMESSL
# Test: FLIPR calcium signal, hDP
# Assay type: cell-based
# Conditions: read-out: Other Receptors EC50 hDP
# Description: HEK-293(EBNA) cells, stably expressing one type or subtype of recombinant human prostaglandin receptors (prostaglandin receptors expressed: hDP/Gqs5; hEP1; hEP2/Gqs5; hEP3A/Gqi5; hEP4/Gqs5; hFP; hIP; hTP), were cultured in 100 mm culture dishes in high-glucose DMEM medium containing 10% fetal bovine serum, 2 mM 1-glutamine, 250 μg/ml geneticin (G418) and 200 μg/ml hygromycin B as selection markers, and 100 units/ml penicillin G, 100 μg/ml streptomycin and 0.25 μg/ml amphotericin B. • (b) Calcium Signal Studies on the FLIPR™
# Cells were seeded at a density of 5×10^4 cells per well in Biocoat® Poly-D-lysine-coated black-wall, clear-bottom 96-well plates (Becton-Dickinson) and allowed to attach overnight in an incubator at 37° C. Cells were then washed two times with HBSS-HEPES buffer (Hanks Balanced Salt Solution without bicarbonate and phenol red, 20 mM HEPES, pH 7.4) using a Denley Cellwash plate washer (Labsystems). After 45 minutes of dye-loading in the dark, using the calcium-sensitive dye Fluo-4 AM at a final concentration of 2 μM, plates were washed four times with HBSS-HEPES buffer to remove excess dye leaving 100 μl in each well. Plates were re-equilibrated to 37° C. for a few minutes.
# Cells were excited with an Argon laser at 488 nm, and emission was measured through a 510-570 nm bandwidth emission filter (FLIPR™, Molecular Devices, Sunnyvale, Calif.). Drug solution was added in a 50 μl volume to each well to give the desired final concentration. The peak increase in fluorescence intensity was recorded for each well. On each plate, four wells each served as negative (HBSS-HEPES buffer) and positive controls (standard agonists: BW245C (hDP); PGE2 (hEP1; hEP2/Gqs5; hEP3A/Gqi5; hEP4/Gqs5); PGF2α (hFP); carbacyclin (hIP); U-46619 (hTP), depending on receptor). The peak fluorescence change in each drug-containing well was then expressed relative to the controls.
# Compounds were tested in a high-throughput (HTS) or concentration-response (CoRe) format. In the HTS format, forty-four compounds per plate were examined in duplicates at a concentration of 10^−5 M. To generate concentration-response curves, four compounds per plate were tested in duplicates in a concentration range between 10^−5 and 10^−11 M. The duplicate values were averaged. In either, HTS or CoRe format each compound was tested on at least 3 separate plates using cells from different passages to give an n≧3.
row,EC50 [nM],Structure (SMILES)
1,106,"CCCCCCC(O)c1ccc(N2C(=O)CC[C@@H]2CCCc2ccc(C(=O)O)s2)cc1 (single isomer, unassigned) [drawing 156]"
2,37,"CCCCCCC(O)c1ccc(N2C(=O)CC[C@@H]2CCCc2ccc(C(=O)O)s2)cc1 (single isomer, unassigned) [drawing 155]"
3,6800,"CCCCCC(O)c1ccc(N2C(=O)CC[C@@H]2COCc2ccc(C(=O)O)s2)cc1 (single isomer, unassigned) [drawing 177]"
4,7700,CCCCCC(=O)c1ccc(N2C(=O)CC[C@@H]2CCCc2ccc(C(=O)O)s2)cc1
5,296,"CCCCCC(O)c1ccc(N2C(=O)CC[C@@H]2CCCc2ccc(C(=O)O)s2)cc1 (single isomer, unassigned) [drawing 179]"
6,1920,CC(C)(C)c1ccc(N2C(=O)CC[C@@H]2COCc2ccc(C(=O)O)o2)cc1
7,6830,"CCCCCCC(O)c1ccc(N2C(=O)CC[C@@H]2COCc2ccc(C(=O)O)s2)cc1 (single isomer, unassigned) [drawing 152]"
8,296,"CCCCCC(O)c1ccc(N2C(=O)CC[C@@H]2CCCc2ccc(C(=O)O)s2)cc1 (single isomer, unassigned) [drawing 151]"
9,1230,CCCCCC(O)c1ccc(N2C(=O)CC[C@@H]2CCCc2ccc(C(=O)O)s2)cc1 (some centres unmarked) [drawing 145]
10,1230,CCCCCC(O)c1ccc(N2C(=O)CC[C@@H]2CCCc2ccc(C(=O)O)s2)cc1 (some centres unmarked) [drawing 173]

# Reference: US7799821B2, “Therapeutic compounds” (Allergan, Inc., priority 2004, dated 2010)
